Tests used:
[1] = comparison; cited from earlier work
[2] = biological target: T1, Klebsiella pneumoniae carbapenemases (KPC), KPC-2 (Klebsiella pneumoniae, UniProt Q9F663); assay: Detection of KPC carbapenemase by fluorogenic carbapenem after physical disruption by sonication; type: biochemical; settings: cells lysed by sonication, PBS, 100 μg carbapenem, room temperature for 5 min
T1 construct: endogenous in cells; host or cells: Klebsiella pneumoniae clinical strain (KPC-2, Heidelberg), lysed by sonication
T1 sequence (Q9F663 25-293 limits assumed): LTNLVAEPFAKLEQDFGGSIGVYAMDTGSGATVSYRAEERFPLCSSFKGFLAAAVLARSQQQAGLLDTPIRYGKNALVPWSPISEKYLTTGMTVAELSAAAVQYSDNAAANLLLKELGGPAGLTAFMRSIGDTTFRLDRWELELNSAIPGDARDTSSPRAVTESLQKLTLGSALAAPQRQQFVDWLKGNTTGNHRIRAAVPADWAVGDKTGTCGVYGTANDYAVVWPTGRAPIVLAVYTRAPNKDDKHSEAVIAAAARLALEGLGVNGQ
Procedure: Detection of Klebsiella pneumoniae carbapenemases (KPC) by fluorogenic potassium-(4S,5R,6S)-3-(4-acetyl-phenyl)-6-((1′R)-hydroxy-ethyl)-4-methyl-7-oxo-1-aza-bicyclo[3.2.0]hept-2-ene-2-carboxylate after physical disruption by sonication
(§1) Bacterial strain Klebsiella pneumoniae (producing KPC-2, Heidelberg) was grown over night at 37° C. (220 rpm) in Mueller-Hinton-Broth (10 ml) using a 45-ml-Falcon tube, harvested by centrifugation at 13.000 rpm (2 min, 1 ml for analytical studies, McFarland 10), washed once with PBS (1 ml), and resuspended in PBS (500 μl). Subsequently the cells were lysed by sonication with a Bandelin Sonopuls (5×15 s), pulsed at 80% max. power. Further PBS (500 μl) and fluorogenic carbapenem (100 μg) were added.

[3] = biological target: T1, Klebsiella pneumoniae carbapenemases (KPC), KPC-2; assay: Detection of KPC carbapenemase during sonication with glass beads; type: biochemical; settings: sonication with glass beads in ultrasound bath, 100 μg, treatment for 45 min
Procedure: Detection of Klebsiella pneumoniae carbapenemases (KPC) by fluorogenic potassium-(4S,5R,6S)-3-(4-acetyl-phenyl)-6-((1′R)-hydroxy-ethyl)-4-methyl-7-oxo-1-aza-bicyclo[3.2.0]hept-2-ene-2-carboxylate during physical disruption by sonication with glass beads
Bacterial strain Klebsiella pneumoniae (producing KPC-2, Heidelberg) was grown over night at 37° C. in Mueller-Hinton-Broth (10 ml). To a sample (1 ml, McFarland 0.5) were added fluorogenic carbapenem (100 μg) and glass beads (100 mg, Sigma-Aldrich, G9018, 150-212 μm, unwashed) using a 5-ml-glass-tube with a plane bottom. The cells were lysed by sonication with a commercial available ultrasound bath.

[4] = biological target: T2, Oxa-48-carbapenemases (Klebsiella pneumoniae, UniProt Q6XEC0); assay: Detection of inducible (Oxa-type) carbapenemases after sonication; type: biochemical, Escherichia coli
T2 construct: endogenous in cells; host or cells: Escherichia coli strain (producing Oxa-48, Heidelberg), with or without imipenem induction, lysed by sonication
T2 sequence (Q6XEC0 23-265 limits assumed): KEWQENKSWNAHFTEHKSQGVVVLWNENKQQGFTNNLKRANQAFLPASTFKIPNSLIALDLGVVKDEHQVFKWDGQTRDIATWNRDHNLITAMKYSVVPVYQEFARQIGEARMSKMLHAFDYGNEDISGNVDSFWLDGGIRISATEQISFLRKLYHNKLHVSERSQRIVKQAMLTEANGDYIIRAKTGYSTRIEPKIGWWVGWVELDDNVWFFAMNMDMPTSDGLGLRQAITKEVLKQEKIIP
Procedure: Detection of inducible (Oxa-type) carbapenemases of Escherichia coli by fluorogenic potassium-(4S,5R,6S)-3-(4-acetyl-phenyl)-6-((1′R)-hydroxy-ethyl)-4-methyl-7-oxo-1-aza-bicyclo[3.2.0]hept-2-ene-2-carboxylate after physical disruption by sonication
as §1, with “Escherichia cog” for “Klebsiella pneumoniae”, “Oxa-48,” for “KPC-2,”, “tube. A sample (1 ml, McFarland 10) was diluted in Mueller-Hinton-Broth (10 ml) and incubated with Imipenem (2 μg/ml) for 4 h using a 45-ml-Falcon tube. After” for “tube, harvested by”, “studies), the sample was” for “studies, McFarland 10),”, “ml)” for “ml),”

[5] = tested on: Klebsiella pneumoniae (VIM-1, Heidelberg); assay: Detection of metallo-carbapenemases in PBS during incubation; type: cell-based; settings: 100 μg, five drops inoculum McFarland 0.5, over night at 37° C.
Procedure: (§2) Detection of metallo-carbapenemases by fluorogenic potassium-(4S,5R,6S)-3-(4-acetyl-phenyl)-6-((1′R)-hydroxy-ethyl)-4-methyl-7-oxo-1-aza-bicyclo[3.2.0]hept-2-ene-2-carboxylate in PBS during incubation
(§3) Bacterial strains Klebsiella pneumoniae (VIM-1, Heidelberg) and Pseudomonas aeruginosa (IMP, Heidelberg) were grown over night at 37° C. in Mueller-Hinton-Broth (10 ml). To each PBS (1 ml) of fluorogenic carbapenem (100 μg) were added five drops of corresponding inoculum (McFarland 0.5).

[6] = tested on: Pseudomonas aeruginosa (IMP, Heidelberg); assay: as above; type: cell-based; settings: 100 μg, five drops inoculum McFarland 0.5, over night at 37° C.
Procedure: as §2, §3

[7] = tested on: Escherichia coli (ESBL-1, Heidelberg); assay: Detection of carbapenemases during incubation in Mueller-Hinton-Broth; type: cell-based; settings: ESBL-producer, McFarland 0.5, 100 μg, over night at 37° C.
Procedure: (§4) Detection of carbapenemases by fluorogenic potassium-(4S,5R,6S)-3-(4-acetyl-phenyl)-6-((1′R)-hydroxy-ethyl)-4-methyl-7-oxo-1-aza-bicyclo[3.2.0]hept-2-ene-2-carboxylate during incubation
(§5) Bacterial strains Escherichia coli (ESBL-1, Heidelberg), Escherichia coli (ESBL-2, Heidelberg), Escherichia coli (Oxa-48), Klebsiella pneumoniae (KPC-2, Heidelberg) Klebsiella pneumoniae (VIM-1, Heidelberg), Pseudomonas aeruginosa (GES-2, Heidelberg), Pseudomonas aeruginosa (IMP, Heidelberg) and Pseudomonas aeruginosa (VIM-2, Heidelberg) were grown over night at 37° C. in Mueller-Hinton-Broth (10 ml). To each sample (1 ml, McFarland 0.5) was added fluorogenic carbapenem (100 μg).

[8] = tested on: Escherichia coli (ESBL-2, Heidelberg); assay: as above; type: cell-based; settings: ESBL-producer, McFarland 0.5, 100 μg, over night at 37° C.
Procedure: as §4, §5

[9] = tested on: Escherichia coli (Oxa-48); assay: as above; type: cell-based; settings: McFarland 0.5, 100 μg, over night at 37° C.
Procedure: as §4, §5

[10] = tested on: Klebsiella pneumoniae (KPC-2, Heidelberg); assay: as above; type: cell-based; settings: McFarland 0.5, 100 μg, over night at 37° C.
Procedure: as §4, §5

[11] = tested on: Klebsiella pneumoniae (VIM-1, Heidelberg); assay: as above; type: cell-based; settings: McFarland 0.5, 100 μg, over night at 37° C.
Procedure: as §4, §5

[12] = tested on: Pseudomonas aeruginosa (GES-2, Heidelberg); assay: as above; type: cell-based; settings: McFarland 0.5, 100 μg, over night at 37° C.
Procedure: as §4, §5

[13] = tested on: Pseudomonas aeruginosa (IMP, Heidelberg); assay: as above; type: cell-based; settings: McFarland 0.5, 100 μg, over night at 37° C.
Procedure: as §4, §5

[14] = tested on: Pseudomonas aeruginosa (VIM-2, Heidelberg); assay: as above; type: cell-based; settings: McFarland 0.5, 100 μg, over night at 37° C.
Procedure: as §4, §5

[15] = tested on: Escherichia coli (ESBL-1, Heidelberg); assay: Detection of carbapenemases during optimized incubation; type: cell-based; settings: ESBL-producer, pre-incubated 6 h at 37° C. (220 rpm), 100 μg, over night at 37° C.
Procedure: (§6) Detection of carbapenemases by fluorogenic potassium-(4S,5R,6S)-3-(4-acetyl-phenyl)-6-((1′R)-hydroxy-ethyl)-4-methyl-7-oxo-1-aza-bicyclo[3.2.0]hept-2-ene-2-carboxylate during optimized incubation
as §5, with “Heidelberg),” for “Heidelberg) and”, “incubated for 6 h” for “grown over night”, “C. (220 rpm)” for “C.”, “ml) using 45-ml-Falcon-tubes.” for “ml).”, “ml)” for “ml, McFarland 0.5)”, “μg) using 15-ml-Falcon-tubes.” for “μg).”

[16] = tested on: Escherichia coli (ESBL-2, Heidelberg); assay: as above; type: cell-based; settings: ESBL-producer, pre-incubated 6 h at 37° C. (220 rpm), 100 μg, over night at 37° C.
Procedure: as §6
as §5, with “Heidelberg),” for “Heidelberg) and”, “incubated for 6 h” for “grown over night”, “C. (220 rpm)” for “C.”, “ml) using 45-ml-Falcon-tubes.” for “ml).”, “ml)” for “ml, McFarland 0.5)”, “μg) using 15-ml-Falcon-tubes.” for “μg).”

[17] = tested on: Escherichia coli (Oxa-48); assay: as above; type: cell-based; settings: pre-incubated 6 h at 37° C. (220 rpm), 100 μg, over night at 37° C.
Procedure: as §6
as §5, with “Heidelberg),” for “Heidelberg) and”, “incubated for 6 h” for “grown over night”, “C. (220 rpm)” for “C.”, “ml) using 45-ml-Falcon-tubes.” for “ml).”, “ml)” for “ml, McFarland 0.5)”, “μg) using 15-ml-Falcon-tubes.” for “μg).”

[18] = tested on: Klebsiella pneumoniae (KPC-2, Heidelberg); assay: as above; type: cell-based; settings: pre-incubated 6 h at 37° C. (220 rpm), 100 μg, over night at 37° C.
Procedure: as §6
as §5, with “Heidelberg),” for “Heidelberg) and”, “incubated for 6 h” for “grown over night”, “C. (220 rpm)” for “C.”, “ml) using 45-ml-Falcon-tubes.” for “ml).”, “ml)” for “ml, McFarland 0.5)”, “μg) using 15-ml-Falcon-tubes.” for “μg).”

[19] = tested on: Klebsiella pneumoniae (VIM-1, Heidelberg); assay: as above; type: cell-based; settings: pre-incubated 6 h at 37° C. (220 rpm), 100 μg, over night at 37° C.
Procedure: as §6
as §5, with “Heidelberg),” for “Heidelberg) and”, “incubated for 6 h” for “grown over night”, “C. (220 rpm)” for “C.”, “ml) using 45-ml-Falcon-tubes.” for “ml).”, “ml)” for “ml, McFarland 0.5)”, “μg) using 15-ml-Falcon-tubes.” for “μg).”

[20] = tested on: Pseudomonas aeruginosa (GES-2, Heidelberg); assay: as above; type: cell-based; settings: pre-incubated 6 h at 37° C. (220 rpm), 100 μg, over night at 37° C.
Procedure: as §6
as §5, with “Heidelberg),” for “Heidelberg) and”, “incubated for 6 h” for “grown over night”, “C. (220 rpm)” for “C.”, “ml) using 45-ml-Falcon-tubes.” for “ml).”, “ml)” for “ml, McFarland 0.5)”, “μg) using 15-ml-Falcon-tubes.” for “μg).”

[21] = tested on: Pseudomonas aeruginosa (IMP, Heidelberg); assay: as above; type: cell-based; settings: pre-incubated 6 h at 37° C. (220 rpm), 100 μg, over night at 37° C.
Procedure: as §6
as §5, with “Heidelberg),” for “Heidelberg) and”, “incubated for 6 h” for “grown over night”, “C. (220 rpm)” for “C.”, “ml) using 45-ml-Falcon-tubes.” for “ml).”, “ml)” for “ml, McFarland 0.5)”, “μg) using 15-ml-Falcon-tubes.” for “μg).”

[22] = tested on: Pseudomonas aeruginosa (VIM-2, Heidelberg); assay: as above; type: cell-based; settings: pre-incubated 6 h at 37° C. (220 rpm), 100 μg, over night at 37° C.
Procedure: as §6
as §5, with “Heidelberg),” for “Heidelberg) and”, “incubated for 6 h” for “grown over night”, “C. (220 rpm)” for “C.”, “ml) using 45-ml-Falcon-tubes.” for “ml).”, “ml)” for “ml, McFarland 0.5)”, “μg) using 15-ml-Falcon-tubes.” for “μg).”

[23] = tested on: Klebsiella pneumoniae (KPC-2, Heidelberg); assay: Detection of carbapenemases during chemical lysis; type: biochemical; settings: McFarland 10 in detergent buffer solution, 100 μg, 6 h at 37° C.
Procedure: (§7) Detection of carbapenemases by fluorogenic potassium-(4S,5R,6S)-3-(4-acetyl-phenyl)-6-((1′R)-hydroxy-ethyl)-4-methyl-7-oxo-1-aza-bicyclo[3.2.0]hept-2-ene-2-carboxylate during chemical lysis
(§8) Bacterial strains Pseudomonas aeruginosa DSM 1117 (no resistance), Pseudomonas aeruginosa (VIM-2, Heidelberg) and Klebsiella pneumoniae (KPC-2, Heidelberg) were incubated over night at 37° C. on Mueller-Hinton-Agar plates. A sample of each strain was suspended (McFarland 10) in primary-amine-free buffer solution (1 ml) of a detergent from Merck (Germany). Fluorogenic carbapenem (100 μg) was added.

[24] = tested on: Pseudomonas aeruginosa (VIM-2, Heidelberg); assay: Detection of carbapenemases during chemical lysis; type: biochemical; settings: McFarland 10 in detergent buffer solution, 100 μg, 6 h at 37° C.
Procedure: as §7, §8

[25] = tested on: Pseudomonas aeruginosa DSM 1117 (no resistance); assay: Detection of carbapenemases during chemical lysis; type: biochemical; settings: McFarland 10 in detergent buffer solution, 100 μg, 6 h at 37° C.
Procedure: as §7, §8

Green Fluorescent Protein
Stokes shift [1]: 114 nm

potassium-(4S,5R,6S)-3-(4-acetyl-phenyl)-6-((1′R)-hydroxy-ethyl)-4-methyl-7-oxo-1-aza-bicyclo[3.2.0]hept-2-ene-2-carboxylate [Example 1]
disappearance of the green-yellow fluorescence colour (UV light λ=366 nm) [2]: disappearance of the green-yellow fluorescence colour
disappearance of the green-yellow fluorescence colour (λ=366 nm) [3]: disappearance of the green-yellow fluorescence colour
disappearance of the green-yellow fluorescence colour (UV light λ=366 nm) ([4]; induced with Imipenem (2 μg/ml) for 4 h, lysed by sonication, PBS, room temperature for 5 min): disappearance of the green-yellow fluorescence colour
change in fluorescence colour ([4]; non-induced sample, within 30 minutes): did not show any change in fluorescence colour
disappearance of the green-yellow fluorescence colour (UV light λ=366 nm) [5]: disappearance of the green-yellow fluorescence colour
disappearance of the green-yellow fluorescence colour (UV light λ=366 nm) [6]: disappearance of the green-yellow fluorescence colour
change in colour (fluorescence, UV light λ=366 nm) [7]: did not show any change in colour
change in colour (fluorescence, UV light λ=366 nm) [8]: did not show any change in colour
disappearance of the green-yellow fluorescence colour (UV light λ=366 nm) [9]: disappearance of the green-yellow fluorescence colour
disappearance of the green-yellow fluorescence colour (UV light λ=366 nm) [10]: disappearance of the green-yellow fluorescence colour
disappearance of the green-yellow fluorescence colour (UV light λ=366 nm) [11]: disappearance of the green-yellow fluorescence colour
disappearance of the green-yellow fluorescence colour (UV light λ=366 nm) [12]: disappearance of the green-yellow fluorescence colour
disappearance of the green-yellow fluorescence colour (UV light λ=366 nm) [13]: disappearance of the green-yellow fluorescence colour
disappearance of the green-yellow fluorescence colour (UV light λ=366 nm) [14]: disappearance of the green-yellow fluorescence colour
change in fluorescence colour (λ=366 nm) [15]: did not show any change in fluorescence colour
change in fluorescence colour (λ=366 nm) [16]: did not show any change in fluorescence colour
disappearance of the green-yellow fluorescence colour (λ=366 nm) [17]: disappearance of the green-yellow fluorescence colour
disappearance of the green-yellow fluorescence colour (λ=366 nm) [18]: disappearance of the green-yellow fluorescence colour
disappearance of the green-yellow fluorescence colour (λ=366 nm) [19]: disappearance of the green-yellow fluorescence colour
disappearance of the green-yellow fluorescence colour (λ=366 nm) [20]: disappearance of the green-yellow fluorescence colour
disappearance of the green-yellow fluorescence colour (λ=366 nm) [21]: disappearance of the green-yellow fluorescence colour
disappearance of the green-yellow fluorescence colour (λ=366 nm) [22]: disappearance of the green-yellow fluorescence colour
disappearance of the green-yellow fluorescence colour (λ=366 nm) [23]: disappearance of the green-yellow fluorescence colour
disappearance of the green-yellow fluorescence colour (λ=366 nm) [24]: disappearance of the green-yellow fluorescence colour
change in fluorescence colour (λ=366 nm) [25]: did not show any change in fluorescence colour
